Data as given in ChEMBL document CHEMBL4342438, “Discovery of pyrazolone spirocyclohexadienone derivatives with potent antitumor activity” (Bioorg Med Chem Lett, 2020).
pIC50: −log10 of the molar value.

What was measured:
A549 = test: Antiproliferative activity against human A549 cells assessed as reduction in cell growth measured after 72 hrs by CCK8 assay; type: functional, cell-based; conditions: A549, 72 h
MDA-MB-231 [1] = test: Antiproliferative activity against human MDA-MB-231 cells assessed as reduction in cell growth measured after 72 hrs by CCK8 assay; type: functional, cell-based; conditions: MDA-MB-231, 72 h
HCT-116 = test: Antiproliferative activity against human HCT116 cells assessed as reduction in cell growth measured after 72 hrs by CCK8 assay; type: functional, cell-based; conditions: HCT-116, 72 h
MDA-MB-231 [2] = test: Induction of cell cycle arrest in human MDA-MB-231 cells assessed as accumulation at G1 phase at 2 uM measured after 24 hrs by flow cytometry analysis (reference value: 43.68%); type: functional
HUVEC = test: Cytotoxicity against HUVEC assessed as inhibition of cell growth measured after 72 hrs by CCK8 assay; type: cell-based; conditions: Homo sapiens
MDA-MB-231 [3] = test: Induction of apoptosis in human MDA-MB-231 cells assessed as apoptotic cells at 2.5 uM measured after 48 hrs by annexinV-FITC/propidium iodide staining based flow cytometry analysis (reference value: 5.62%); type: functional
MDA-MB-231 [4] = test: Induction of apoptosis in human MDA-MB-231 cells assessed as apoptotic cells at 10 uM measured after 48 hrs by annexinV-FITC/propidium iodide staining based flow cytometry analysis (reference value: 5.62%); type: functional
MDA-MB-231 [5] = test: Induction of cell cycle arrest in human MDA-MB-231 cells assessed as accumulation at S phase at 2 uM measured after 24 hrs by flow cytometry analysis (reference value: 32.63%); type: functional
MDA-MB-231 [6] = test: Induction of cell cycle arrest in human MDA-MB-231 cells assessed as accumulation at G2 phase at 2 uM measured after 24 hrs by flow cytometry analysis (reference value: 23.69%); type: functional
MDA-MB-231 [7] = test: Induction of apoptosis in human MDA-MB-231 cells assessed as increase in apoptotic cells measured after 48 hrs by annexinV-FITC/propidium iodide staining based flow cytometry analysis; type: functional, cell-based
MDA-MB-231 [8] = test: Induction of cell cycle arrest in human MDA-MB-231 cells assessed as accumulation at G1 phase at 1 uM measured after 24 hrs by flow cytometry analysis (reference value: 43.68%); type: functional
MDA-MB-231 [9] = test: Induction of cell cycle arrest in human MDA-MB-231 cells assessed as accumulation at G2 phase at 1 uM measured after 24 hrs by flow cytometry analysis (reference value: 23.69%); type: functional
MDA-MB-231 [10] = test: Induction of apoptosis in human MDA-MB-231 cells assessed as apoptotic cells at 5 uM measured after 48 hrs by annexinV-FITC/propidium iodide staining based flow cytometry analysis (reference value: 5.62%); type: functional
MDA-MB-231 [11] = test: Induction of cell cycle arrest in human MDA-MB-231 cells assessed as accumulation at S phase at 1 uM measured after 24 hrs by flow cytometry analysis (reference value: 32.63%); type: functional

| Compound | pIC50 (A549) | pIC50 (MDA-MB-231 [1]) | pIC50 (HCT-116) | further results |
| --- | --- | --- | --- | --- |
| CC1=NN(c2ccc(Cl)cc2)C(=O)C12C=CC(=O)C=C2c1ccc(C)cc1 (stereo unspecified) | 4.48 | 4.84 | 4.99 | – |
| CC1=NN(c2ccccc2)C(=O)C12C=CC(=O)C=C2c1cccc(C)c1 (stereo unspecified) | 4.78 | 4.07 | < 4.00 | – |
| CC1=NN(c2ccccc2)C(=O)C12C=CC(=O)C=C2c1ccccc1 (stereo unspecified) | 4.78 | 4.56 | 4.75 | – |
| CC1=NN(c2ccc(Br)cc2)C(=O)C12C=CC(=O)C=C2c1ccccc1 (stereo unspecified) | < 4.00 | < 4.00 | < 4.00 | – |
| CC1=NN(c2cccc(Cl)c2)C(=O)C12C=CC(=O)C=C2c1cccc(C)c1 (stereo unspecified) | 4.70 | 4.65 | 5.43 | – |
| CC1=NN(c2ccc(Br)cc2)C(=O)C12C=CC(=O)C=C2c1ccc(C)cc1 (stereo unspecified) | 4.56 | 4.80 | 4.98 | – |
| CC1=NN(c2cccc(Cl)c2)C(=O)C12C=CC(=O)C=C2c1ccccc1 (stereo unspecified) | 4.73 | 4.52 | 5.15 | – |
| CC1=NN(c2cccc(Cl)c2)C(=O)C12C=CC(=O)C=C2c1ccc(C)cc1 (stereo unspecified) | 5.04 | 5.42 | 5.54 to 5.62 | Activity (MDA-MB-231 [2]): 68.23%; pIC50 (HUVEC): 5.27; Activity (MDA-MB-231 [3]): 9.7%; Activity (MDA-MB-231 [4]): 47.23%; Activity (MDA-MB-231 [5]): 14.27%; Activity (MDA-MB-231 [6]): 17.5%; Activity (MDA-MB-231 [7]): Dose-dependent effect; Activity (MDA-MB-231 [8]): 45.59 - 49.59%; Activity (MDA-MB-231 [9]): 21.23%; Activity (MDA-MB-231 [10]): 12.2%; Activity (MDA-MB-231 [11]): 29.18% |
| CC1=NN(c2ccccc2)C(=O)C12C=CC(=O)C=C2c1ccc(C)cc1 (stereo unspecified) | 4.71 | 4.04 | 4.57 | – |
| CC1=NN(c2ccc(Cl)cc2)C(=O)C12C=CC(=O)C=C2c1ccccc1 (stereo unspecified) | < 4.00 | < 4.00 | < 4.00 | – |

The next lines start with results.

| pIC50 (A549) | pIC50 (MDA-MB-231 [1]) | pIC50 (HCT-116) | Compound | further results |
| --- | --- | --- | --- | --- |
| 4.34 | 5.54 | < 4.00 | CC1=NN(c2ccc(Br)cc2)C(=O)C12C=CC(=O)C=C2c1cccc(C)c1 (stereo unspecified) | – |
| 4.43 | 5.29 | 5.01 | CC1=NN(c2ccc(C)cc2)C(=O)C12C=CC(=O)C=C2c1ccc(C)cc1 (stereo unspecified) | – |
| 4.33 | 4.33 | 4.78 | CC1=NN(c2ccc(C)cc2)C(=O)C12C=CC(=O)C=C2c1ccccc1 (stereo unspecified) | – |
| 4.65 | 4.71 | 5.08 | CC1=NN(c2ccc(C)cc2)C(=O)C12C=CC(=O)C=C2c1cccc(C)c1 (stereo unspecified) | – |
| 4.42 | 4.57 | 4.88 | CC1=NN(c2ccc(Cl)cc2)C(=O)C12C=CC(=O)C=C2c1cccc(C)c1 (stereo unspecified) | – |
